Bounds are passed on as bounds.

One assay has as its target MTH1 (Homo sapiens, UniProt P36639). The assay can be described thus: MTH1 enzymatic assay and IC50 value determination (malachite green, 96- and 384-well format). To be noted: hydrolysis of dGTP (100 μM), MTH1 6 nM, pyrophosphatase-coupled malachite green, 15 minutes at 22° C. In kind it is biochemical. In outline:
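MTH1 (6 nM) hydrolysed dGTP (100 μM) for 15 min at 22 °C in Tris-acetate buffer with Mg2+, DTT, Tween 20 and excess pyrophosphatase, 1% DMSO. Pi detected with malachite green at 630 nm. IC50 from nonlinear 4-parameter fit of 11–12-point dilution series.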

A further assay concerns cancer cell. The assay can be described thus: Cell viability assay (resazurin). As to conditions: 72 h; 3 days with compound, resazurin fluorescence; cell line not named. The class given is cell-based. How it is done:
The utility of the compounds of the present invention can be illustrated, for example, by their activity in vitro in the cancer cell clonogenic and/or viability assay described below. The link between activity in tumor cell clonogenic assay and anti-tumor activity in the clinical setting has been well established in the art (e.g. see ref Silverstini et al Stem Cells 1993, 11(6), 258-35).
Cells are seeded into 96 well plates (1000-3000 cells/well) in DMEM GlutaMAX™ or other suitable media dependent on cell line and incubated overnight in 5% CO2, 37° C. Thereafter cells are treated with compound or vehicle and left in incubator for 3 days until staining with resazurin. Cells are incubated in resazurin (diluted in suitable media) at 37° C. for 2 hours before measuring the fluorescence (Ex544/Em590).
The compounds to be tested are nano-dispensed in 11 concentrations, directly in 384-well cell plates, with a final DMSO concentration <1%. Cells are seeded in cell plates, pre-dispensed with compounds, 50 μl/well (600-1200 cells/well). After 3 days culture in 5% CO2, 37° C., resazurin diluted in PBS is added, 10 μl/well, and cells are incubated 3 hours before measuring fluorescence (Ex544/Em590).
On the technique in general: The colour change of resazurin is a common sign of viable cells or microbes.

Regarding `Cc1c(Cl)cccc1-c1cc(NCCc2ccc(NS(=O)(=O)CC(F)(F)F)cc2)nc(N)n1` [Example 60, N-[4-(2-{[2-amino-6-(3-chloro-2-methylphenyl)pyrimidin-4-yl]amino}ethyl)phenyl]-2,2,2-trifluoroethane-1-sulfonamide], the IC50 was below 200 nM against MTH1 and below 500 nM with cancer cell.

For `Cc1c(Cl)cccc1-c1cc(NCCc2ccc(NC(=O)OCC(C)(C)C)cc2)nc(N)n1` [Example 121, 2,2-dimethylpropyl N-[4-[2-[[2-amino-6-(3-chloro-2-methyl-phenyl)pyrimidin-4-yl]amino]ethyl]phenyl]carbamate], the values for the IC50 on MTH1 and in the assay with cancer cell were below 200 nM and below 500 nM, respectively.

Regarding `Cc1c(Cl)cccc1-c1cc(NCCc2ccc(C(N)=O)cc2)nc(N)n1` [Example 43, 4-(2-{[2-amino-6-(3-chloro-2-methylphenyl)pyrimidin-4-yl]amino}ethyl)benzamide], the half-inhibitory concentration (IC50) was below 200 nM on MTH1 and below 500 nM in the assay on cancer cell.

In the case of `Cc1cc(Cl)cc(-c2cc(NCCc3ccc(C(N)=O)cc3)nc(N)n2)c1F` [Example 79, 4-(2-{[2-amino-6-(5-chloro-2-fluoro-3-methylphenyl)pyrimidin-4-yl]amino}ethyl)benzamide], the IC50 was below 200 nM against MTH1 and below 500 nM in the assay on cancer cell.

Take `Cc1c(Cl)cccc1-c1cc(NCCNc2ccc3c(c2)N(C)C(=O)CO3)nc(N)n1` [Example 92, 6-[2-[[2-amino-6-(3-chloro-2-methyl-phenyl)pyrimidin-4-yl]amino]ethylamino]-4-methyl-1,4-benzoxazin-3-one]: the results for the IC50 against MTH1 and in the assay on cancer cell were below 200 nM and below 500 nM, respectively.

For the molecule `CC1(C)Nc2cc(NCCNc3cc(-c4cccc(Cl)c4)nc(N)n3)ccc2OC1=O` [Example 103, 6-[2-[[2-amino-6-(3-chlorophenyl)pyrimidin-4-yl]amino]ethylamino]-3,3-dimethyl-4H-1,4-benzoxazin-2-one], the IC50 is below 200 nM against MTH1 and below 500 nM in the assay with cancer cell.

Take `CCNC(=O)Nc1ccc(CCNc2cc(-c3cccc(Cl)c3C)nc(N)n2)cc1` [Example 112, 1-[4-[2-[[2-amino-6-(3-chloro-2-methyl-phenyl)pyrimidin-4-yl]amino]ethyl]phenyl]-3-ethyl-urea]: the IC50 on MTH1 is below 200 nM; in the assay with cancer cell it was below 500 nM.

With `Cc1c(Cl)cccc1-c1cc(NCCc2cccc(NS(=O)(=O)CC(C)C)c2)nc(N)n1` [Example 85, N-[3-(2-{[2-amino-6-(3-chloro-2-methylphenyl)pyrimidin-4-yl]amino}ethyl)phenyl]-2-methylpropane-1-sulfonamide], the IC50 at MTH1 is below 200 nM; with cancer cell, below 500 nM.

Regarding `CCC(C)NC(=O)Nc1ccc(CCNc2cc(-c3cccc(Cl)c3C)nc(N)n2)cc1` (stereo not drawn) [Example 116, 1-[4-[2-[[2-amino-6-(3-chloro-2-methyl-phenyl)pyrimidin-4-yl]amino]ethyl]phenyl]-3-sec-butyl-urea], the figures for the IC50 at MTH1 and with cancer cell were below 200 nM and below 500 nM, respectively.

As to `Nc1nc(NCCNc2ccc3c(c2)NC(=O)CO3)cc(-c2cccc(Cl)c2Cl)n1` [Example 38, 6-[(2-{[2-amino-6-(2,3-dichlorophenyl)pyrimidin-4-yl]amino}ethyl)amino]-3,4-dihydro-2H-1,4-benzoxazin-3-one], the values for the concentration for half-maximal inhibition (IC50) at MTH1 and in the assay with cancer cell were below 200 nM and below 500 nM, respectively.

In the case of `Cc1c(Cl)cccc1-c1cc(NCCc2cccc(NC(=O)NC(C)C)c2)nc(N)n1` [Example 82, 1-[3-(2-{[2-amino-6-(3-chloro-2-methylphenyl)pyrimidin-4-yl]amino}ethyl)phenyl]-3-(propan-2-yl)urea], the 50% inhibitory concentration (IC50) at MTH1 is below 200 nM; in the assay on cancer cell it was below 500 nM.

Consider `Cc1c(Cl)cccc1-c1cc(NCCc2ccc(C(N)=S)cc2)nc(N)n1` [Example 111, 4-[2-[[2-amino-6-(3-chloro-2-methyl-phenyl)pyrimidin-4-yl]amino]ethyl]benzenecarbothioamide], for which the 50% inhibitory concentration (IC50) against MTH1 was below 200 nM; with cancer cell, below 500 nM.

As a reminder, the IC50 is the concentration needed to halve the response being measured.

The values are drawn from patent US10179790B2 (THOMAS HELLEDAYS STIFTELSE FOR MEDICINSK FORSKNING, priority 2014, dated 2019).
